# Measured values reported in publication PMC12446476 (Nature Communications, 2025).
# Several values for one entry are separate records, joined by “and”; a condition that tells them apart may be missing. Identical values can stand only once. Like-named read-outs stand apart in the source and are kept apart here.
# Key:
# [1] = tested on: Salmonella typhimurium (TA1535, TA1537, TA98 and TA100); format: cell-based
# Procedure: (§1) Ames assays were performed using four strains of Salmonella typhimurium (TA1535, TA1537, TA98 and TA100) and a single strain of E. coli (WRP2 uvrA) in the presence and absence of S9 tissue homogenate. Dose levels (µg/plate) up to 4000 were assessed for WP2 uvrA and TA98, 500 for TA1535, 250 for TA1537 and 62.5 for TA100.
# E. coli WP2 uvrA = test: Ames assay, E. coli strain; format: cell-based
# Procedure: as §1
# N. gonorrhoeae = test: In vitro selection of mutants with reduced susceptibility; format: cell-based, Neisseria gonorrhoeae
# Procedure: N. gonorrhoeae strains were grown overnight on chocolate agar plates, as described above. […] Plates were incubated at 35 ± 2 °C in a humid 5% CO2–enriched atmosphere for 48–72 h.
# S. aureus = test: MIC determination for S. aureus, broth dilution; format: cell-based; details: Staphylococcus aureus, ATCC29213; S. aureus ATCC 29213
# [2] = TA98, without S9, 62.5 µg/plate
# [3] = TA100, without S9, 15.6 µg/plate
# [4] = TA100, without S9, 31.3 µg/plate
# [5] = TA1535, without S9, 10 µg/plate
# [6] = TA1535, without S9, 15.6 µg/plate
# [7] = TA1535, without S9, 31.3 µg/plate
# [8] = TA1535, without S9, 62.5 µg/plate
# [9] = TA1535, without S9, 250 µg/plate
# [10] = TA1537, without S9, 10 µg/plate
# [11] = TA1537, without S9, 15.6 µg/plate
# [12] = TA1537, without S9, 31.3 µg/plate
# [13] = TA1537, without S9, 62.5 µg/plate
# Procedure for human hepatocytes: Pooled human hepatocytes from 10-donor males (BioIVT, West Sussex, UK; MX008001) or 10-donor females (BioIVT, West Sussex, UK; FX008001) were incubated with test compounds (or vehicle) and the compound concentration was measured over time. Samples were incubated at 37 °C and concentrations were assessed after 0, 20-, 40-, 60- and 240-min. Verapamil was included as a control.
# The instrument operated in positive ionisation mode (ESI + ) over a m/z range of 80–1000 (n = 1 measure per sample). Data were extracted from chromatograms using calculated monoisotopic accurate masses for protonated molecular ions within 5 ppm windows.
smiles,measurement,setting,value
Cc1c(CN(C)C(=O)/C=C/c2cnc3c(c2)N[C@H](C)[C@H](OP(=O)([O-])[O-])C(=O)N3)oc2ccccc12.[Na+].[Na+] [Debio 1453 P],"Ames bacterial mutation assessment, Mean","[1]; TA98, with S9, 62.5 µg/plate",34
same,Colony count,"[1]; TA98, with S9, 62.5 µg/plate",35 and 36 and 30
same,"Ames bacterial mutation assessment, Mean","[1]; TA98, with S9, 250 µg/plate",26
same,Colony count,"[1]; TA98, with S9, 250 µg/plate",28 and 26 and 23
same,"Ames bacterial mutation assessment, Mean","[1]; TA98, with S9, 500 µg/plate",12
same,Colony count,"[1]; TA98, with S9, 500 µg/plate",14 and 12 and 11
same,"Ames bacterial mutation assessment, Mean",[1]; [2],32
same,Colony count,[1]; [2],36 and 29 and 32
same,"Ames bacterial mutation assessment, Mean","[1]; TA98, without S9, 250 µg/plate",22
same,Colony count,"[1]; TA98, without S9, 250 µg/plate",24 and 21 and 20
same,"Ames bacterial mutation assessment, Mean","[1]; TA98, without S9, 500 µg/plate",12
same,Colony count,"[1]; TA98, without S9, 500 µg/plate",12 and 13 and 10
same,"Ames bacterial mutation assessment, Mean","[1]; TA100, with S9, 5 µg/plate",141
same,Colony count,"[1]; TA100, with S9, 5 µg/plate",143 and 140 and 141
same,"Ames bacterial mutation assessment, Mean","[1]; TA100, with S9, 10 µg/plate",128
same,Colony count,"[1]; TA100, with S9, 10 µg/plate",123 and 133 and 128
same,"Ames bacterial mutation assessment, Mean","[1]; TA100, with S9, 15.6 µg/plate",60
same,Colony count,"[1]; TA100, with S9, 15.6 µg/plate",57 and 59 and 64
same,"Ames bacterial mutation assessment, Mean","[1]; TA100, with S9, 31.3 µg/plate",30
same,Colony count,"[1]; TA100, with S9, 31.3 µg/plate",30 and 29 and 32
same,"Ames bacterial mutation assessment, Mean","[1]; TA100, without S9, 5 µg/plate",146
same,Colony count,"[1]; TA100, without S9, 5 µg/plate",146 and 143 and 149
same,"Ames bacterial mutation assessment, Mean","[1]; TA100, without S9, 10 µg/plate",134
same,Colony count,"[1]; TA100, without S9, 10 µg/plate",125 and 145 and 131
same,"Ames bacterial mutation assessment, Mean",[1]; [3],59
same,Colony count,[1]; [3],66 and 54 and 58
same,"Ames bacterial mutation assessment, Mean",[1]; [4],33
same,Colony count,[1]; [4],32 and 31 and 36
same,"Ames bacterial mutation assessment, Mean","[1]; TA1535, with S9, 10 µg/plate",18
same,Colony count,"[1]; TA1535, with S9, 10 µg/plate",19 and 16
same,"Ames bacterial mutation assessment, Mean","[1]; TA1535, with S9, 15.6 µg/plate",15
same,Colony count,"[1]; TA1535, with S9, 15.6 µg/plate",18 and 14
same,"Ames bacterial mutation assessment, Mean","[1]; TA1535, with S9, 31.3 µg/plate",16
same,Colony count,"[1]; TA1535, with S9, 31.3 µg/plate",17 and 16 and 14
same,"Ames bacterial mutation assessment, Mean","[1]; TA1535, with S9, 62.5 µg/plate",14
same,Colony count,"[1]; TA1535, with S9, 62.5 µg/plate",15 and 12 and 16
same,"Ames bacterial mutation assessment, Mean","[1]; TA1535, with S9, 250 µg/plate",6
same,Colony count,"[1]; TA1535, with S9, 250 µg/plate",5 and 7
same,"Ames bacterial mutation assessment, Mean","[1]; TA1535, with S9, 500 µg/plate",5
same,Colony count,"[1]; TA1535, with S9, 500 µg/plate",6 and 5
same,"Ames bacterial mutation assessment, Mean",[1]; [5],19
same,Colony count,[1]; [5],18 and 21
same,"Ames bacterial mutation assessment, Mean",[1]; [6],17
same,Colony count,[1]; [6],17 and 16
same,"Ames bacterial mutation assessment, Mean",[1]; [7],13
same,Colony count,[1]; [7],14 and 13
same,"Ames bacterial mutation assessment, Mean",[1]; [8],11
same,Colony count,[1]; [8],11 and 12
same,"Ames bacterial mutation assessment, Mean",[1]; [9],6
same,Colony count,[1]; [9],6 and 8 and 4
same,"Ames bacterial mutation assessment, Mean","[1]; TA1535, without S9, 500 µg/plate",4
same,"Ames bacterial mutation assessment, Mean","[1]; TA1537, with S9, 10 µg/plate",17
same,Colony count,"[1]; TA1537, with S9, 10 µg/plate",16 and 19
same,"Ames bacterial mutation assessment, Mean","[1]; TA1537, with S9, 15.6 µg/plate",18
same,Colony count,"[1]; TA1537, with S9, 15.6 µg/plate",19 and 16 and 18
same,"Ames bacterial mutation assessment, Mean","[1]; TA1537, with S9, 31.3 µg/plate",10
same,Colony count,"[1]; TA1537, with S9, 31.3 µg/plate",10 and 11 and 9
same,"Ames bacterial mutation assessment, Mean",[1]; [10],19
same,Colony count,[1]; [10],17 and 20 and 19
same,"Ames bacterial mutation assessment, Mean",[1]; [11],18
same,Colony count,[1]; [11],19 and 20 and 16
same,"Ames bacterial mutation assessment, Mean",[1]; [12],15
same,Colony count,[1]; [12],16 and 14
same,"Ames bacterial mutation assessment, Mean",[1]; [13],7
same,Colony count,[1]; [13],8 and 6
same,Ames assay result,"[1]; presence and absence of S9, highest concentrations tested",non-mutagenic
same,"Ames bacterial mutation assessment, Mean","E. coli WP2 uvrA; with S9, 62.5 µg/plate",32
same,Colony count,"E. coli WP2 uvrA; with S9, 62.5 µg/plate",33 and 34 and 28
same,"Ames bacterial mutation assessment, Mean","E. coli WP2 uvrA; with S9, 250 µg/plate",31
same,Colony count,"E. coli WP2 uvrA; with S9, 250 µg/plate",33 and 31 and 30
same,"Ames bacterial mutation assessment, Mean","E. coli WP2 uvrA; with S9, 500 µg/plate",34
same,Colony count,"E. coli WP2 uvrA; with S9, 500 µg/plate",34 and 36 and 31
same,"Ames bacterial mutation assessment, Mean","E. coli WP2 uvrA; with S9, 1000 µg/plate",28
same,Colony count,"E. coli WP2 uvrA; with S9, 1000 µg/plate",26 and 30 and 28
same,"Ames bacterial mutation assessment, Mean","E. coli WP2 uvrA; with S9, 2000 µg/plate",26
same,Colony count,"E. coli WP2 uvrA; with S9, 2000 µg/plate",27 and 26 and 25
same,"Ames bacterial mutation assessment, Mean","E. coli WP2 uvrA; with S9, 4000 µg/plate",25
same,Colony count,"E. coli WP2 uvrA; with S9, 4000 µg/plate",25 and 26 and 23
same,"Ames bacterial mutation assessment, Mean","E. coli WP2 uvrA; without S9, 62.5 µg/plate",32
same,Colony count,"E. coli WP2 uvrA; without S9, 62.5 µg/plate",31 and 30 and 36
same,"Ames bacterial mutation assessment, Mean","E. coli WP2 uvrA; without S9, 250 µg/plate",26
same,Colony count,"E. coli WP2 uvrA; without S9, 250 µg/plate",26 and 28 and 25
same,"Ames bacterial mutation assessment, Mean","E. coli WP2 uvrA; without S9, 500 µg/plate",25
same,Colony count,"E. coli WP2 uvrA; without S9, 500 µg/plate",21 and 26 and 27
same,"Ames bacterial mutation assessment, Mean","E. coli WP2 uvrA; without S9, 1000 µg/plate",24
same,Colony count,"E. coli WP2 uvrA; without S9, 1000 µg/plate",25 and 24
same,"Ames bacterial mutation assessment, Mean","E. coli WP2 uvrA; without S9, 2000 µg/plate",24
same,Colony count,"E. coli WP2 uvrA; without S9, 2000 µg/plate",21 and 25
same,"Ames bacterial mutation assessment, Mean","E. coli WP2 uvrA; without S9, 4000 µg/plate",22
same,Colony count,"E. coli WP2 uvrA; without S9, 4000 µg/plate",23 and 18 and 24
same,Intrinsic clearance (Clint),human hepatocytes,< 0.44 µL/min/million cells
Cc1c(CN(C)C(=O)/C=C/c2cnc3c(c2)N[C@H](C)[C@H](O)C(=O)N3)oc2ccccc12 [Debio 1453],Mutants (colonies),"N. gonorrhoeae; 6804, 4x MIC",2
same,Mutants (colonies),"N. gonorrhoeae; 6804, 8x MIC",0
same,Mutants (colonies),"N. gonorrhoeae; 6804, 16x MIC",0
same,Mutants (colonies),"N. gonorrhoeae; 6926, 4x MIC",1
same,Mutants (colonies),"N. gonorrhoeae; 6926, 8x MIC",0
same,Mutants (colonies),"N. gonorrhoeae; 6926, 16x MIC",0
same,Mutants (colonies),"N. gonorrhoeae; ATCC 700825, 16x MIC",0
same,Mutants (colonies),"N. gonorrhoeae; WHO Z, 4x MIC",1
same,Mutants (colonies),"N. gonorrhoeae; WHO Z, 8x MIC",0
same,Mutants (colonies),"N. gonorrhoeae; WHO Z, 16x MIC",0
same,MIC,S. aureus,8 ng/mL
